Experimental data reported in patent US9186342B2, “Combination of an NSAID and an amino acid” (LABORATORIOS SENOSIAIN S.A. DE C.V., priority 2010, dated 2015).

Tests used:
[1] = cited from earlier work
[2] = system: pyresis induced by LPS from E. coli in rats; test: Anti-pyretic effect, pyresis model induced by LPS from E. coli; format: in vivo, rat; settings: 15 mg/Kg, from the first 60 minutes
Description: After the assessment of the anti-nociceptive and anti-inflammatory effects, the anti-pyretic effect was assessed for increasing doses of the combination IBU:L-ARG in a ratio IBU/L-ARG=3.26, in comparison with the administration of an agent that is well known as capable of control fever, such as acetaminophen (15 mg/Kg) (see FIG. 5).

[3] = system: inflammation induced with carrageenan in rats; test: Anti-inflammatory effect, inflammation model by carrageenan; format: in vivo, rat; settings: 10 mg/Kg, each 8 hours, from the third hour
Description: From the results of the previous study, and following a model where inflammation is induced with carrageenan administration for generating a bruise, we determined the anti-inflammatory effect of the L-ARG-IBU combination, in comparison with the administration of a treatment of known effects (positive control: diclofenac 10 mg/Kg), and of a control group, administered each 8 hours for a period of 48 hours. This model presented a maximum inflammation level of towards 6-8 hours, after which inflammation starts to decrease gradually.

[4] = in vivo; cited from earlier work

CC(C)Cc1ccc(C(C)C(=O)O)cc1 (stereo not shown) [Ibuprofen]
solubility in water [1]: relatively insoluble in water

CC(=O)Nc1ccc(O)cc1 [acetaminophen]
temperature after drug administration [2]: temperature returned to basal levels

O=C(O)Cc1ccccc1Nc1c(Cl)cccc1Cl [diclofenac]
development of edema [3]: reduced the development of edema

ibuprofen arginate
onset of the analgesic action compared to ibuprofen alone [4]: fast onset of the analgesic action
